According to paper PMC11839852, “Preclinical comparison of (radio)lanthanides using mass spectrometry and nuclear imaging techniques: biodistribution of lanthanide-based tumor-targeting agents and lanthanides in ionic form” (European Journal of Nuclear Medicine and Molecular Imaging, 2024):
Where a SMILES comes first, the peptide text is derived from it. Bridges are numbered along the chain shown (N, C = ends). [ ]: non-standard residue; d: D form. The star is where a group is joined. DOTA = O=C(O)CN1CCN(CC(=O)O)CCN(CC(=O)*)CCN(CC(=O)O)CC1; dPhe(4-NHCONH2) = NC(=O)Nc1ccc(C[C@@H](N)C(=O)O)cc1; Phe(4-Cl) = N[C@@H](Cc1ccc(Cl)cc1)C(=O)O

Tests used:
[1] = test system: non-tumor-bearing immunocompetent FVB mice; test: Biodistribution of Ln-DTPA complexes (multiplexed ICP-MS); conditions: 1 h p.i.
[2] = test system: AR42J, PC-3 PIP and KB tumor cells; test: In vitro cell uptake of Ln-DTPA complexes; assay type: cell-based; conditions: all tumor cell lines, 1 h and 4 h incubation
Procedure: A mixture of equal molar amounts of the lanthanide chloride salts (100 nM stock solutions of ^natLuCl3, ^natTbCl3, ^natGdCl3, and ^natEuCl3, diluted in saline with an adjusted pH value to 3.5‒4.0) was prepared to obtain a final concentration of 10 pmol/mL (2.5 pmol/mL per lanthanide salt) and tested with AR42J, PC-3 PIP and KB tumor cells according to the same protocol as described for the Ln-labeled biomolecules (Supplementary Material). Analogous in vitro cell uptake studies were also performed with lanthanide metal complexes of diethylenetriaminepentaacetic acid (DTPA, Sigma Aldrich Chemie, Steinheim, Germany) to obtain a final concentration of 10 pmol/mL (2.5 pmol/mL per lanthanide complex) (Supplementary Material).
Methods: The same experimental setting as described for Ln-labeled biomolecules was applied to perform uptake and internalization studies with the lanthanide DTPA complexes (Ln-DTPA; Ln = ^natLu, ^natTb, ^natGd and ^natEu). The lanthanides were dissolved in 0.05 M hydrochloric acid and further diluted in a 1:5 (v/v) mixture of sodium acetate (0.5 M) and hydrochloric acid (0.05 M), pH ~4.5. A 10-fold molar excess of DTPA (5 mM, aq.) was added to each lanthanide dilution and the reaction mixtures were incubated for 10 min at 95 °C. The complexed lanthanides were further diluted in saline with an adjusted pH value to 3.5-4.0 for in vitro experiments. The applied solution was a mixture of the four Ln-DTPA complexes at a final concentration of 0.4 µM. Of these mixtures, 25 μL were added to the well with the corresponding tumor cells. The tumor cells were incubated for 1 h and 4 h, respectively, at 37 °C and 5% CO2. After incubation, the tumor cells were treated as described for the Ln-labeled biomolecules and processed for the measurement with ICP-MS.

[3] = Biodistribution of Ln-DOTATATE and Ln-DOTA-LM3 (multiplexed ICP-MS); conditions: female, CD1 nude, mouse, intravenous, 0.5 nmol, AR42J tumor-bearing mice; for tissue uptake at 1 h: 1 h p.i.; for tissue uptake at 24 h: 24 h p.i.
[4] = AR42J tumor, Tissue uptake: AR42J tumor
[5] = intestines, Tissue uptake: Intestines
[6] = kidneys, Tissue uptake: Kidneys
[7] = pancreas, Tissue uptake: Pancreas
[8] = salivary glands, Tissue uptake: Salivary glands

Compound: O=C([O-])CN(CCN(CC(=O)[O-])CC(=O)[O-])CCN(CC(=O)[O-])CC(=O)[O-].[Eu+3] [[^153Eu]Eu-DTPA]
- Tissue uptake: Blood [1]: <0.5 % ID/g
- Tissue uptake: Bone [1]: <0.5 % ID/g
- Tissue uptake: Brain [1]: <0.5 % ID/g
- Tissue uptake: Heart [1]: <0.5 % ID/g
- Tissue uptake: Intestines [1]: <0.5 % ID/g
- Tissue uptake: Kidneys [1]: 2.1 ± 1.0 % ID/g
- Tissue uptake: Liver [1]: <0.5 % ID/g
- Tissue uptake: Lung [1]: <0.5 % ID/g
- Tissue uptake: Muscle [1]: <0.5 % ID/g
- Tissue uptake: Pancreas [1]: <0.5 % ID/g
- Tissue uptake: Salivary glands [1]: <0.5 % ID/g
- Tissue uptake: Spleen [1]: <0.5 % ID/g
- Tissue uptake: Stomach [1]: 0.51 ± 0.07 % ID/g
- Lanthanide detected in cell samples (background levels) [2]: < 20 ppt

Compound: O=C([O-])CN(CCN(CC(=O)[O-])CC(=O)[O-])CCN(CC(=O)[O-])CC(=O)[O-].[Tb+3] [[^159Tb]Tb-DTPA]
- Tissue uptake: Blood [1]: <0.5 % ID/g
- Tissue uptake: Bone [1]: <0.5 % ID/g
- Tissue uptake: Brain [1]: <0.5 % ID/g
- Tissue uptake: Heart [1]: <0.5 % ID/g
- Tissue uptake: Intestines [1]: <0.5 % ID/g
- Tissue uptake: Kidneys [1]: 2.1 ± 1.0 % ID/g
- Tissue uptake: Liver [1]: <0.5 % ID/g
- Tissue uptake: Lung [1]: <0.5 % ID/g
- Tissue uptake: Muscle [1]: <0.5 % ID/g
- Tissue uptake: Pancreas [1]: <0.5 % ID/g
- Tissue uptake: Salivary glands [1]: <0.5 % ID/g
- Tissue uptake: Spleen [1]: <0.5 % ID/g
- Tissue uptake: Stomach [1]: <0.5 % ID/g
- Lanthanide detected in cell samples (background levels) [2]: < 20 ppt

Compound: C[C@@H](O)[C@@H]1NC(=O)[C@H](CCCCN)NC(=O)[C@@H](Cc2ccc(NC(N)=O)cc2)NC(=O)[C@H](Cc2ccc(O)cc2)NC(=O)[C@H](NC(=O)[C@H](Cc2ccc(Cl)cc2)NC(=O)CN2CCN(CC(=O)O)CCN(CC(=O)O)CCN(CC(=O)O)CC2)CSSC[C@@H](C(=O)N[C@H](Cc2ccc(O)cc2)C(N)=O)NC1=O [[^175Lu]Lu-DOTA-LM3] ({DOTA}-[Phe(4-Cl)][dC]Y[dPhe(4-NHCONH2)]KTC[dY]-NH2; disulfide 2-7 (inferred); C-terminus assumed)
- tissue uptake at 1 h [3, 4]: 4.5 ± 0.2 %ID/g
- tissue uptake at 24 h [3, 4]: 2.7 ± 0.3 %ID/g
- tissue uptake at 1 h ([3]; blood, Tissue uptake: Blood): 0.51 ± 0.1 %ID/g
- tissue uptake at 24 h ([3]; blood, Tissue uptake: Blood): < 0.5 %ID/g
- tissue uptake at 1 h ([3]; bone, Tissue uptake: Bone): < 0.5 %ID/g
- tissue uptake at 24 h ([3]; bone, Tissue uptake: Bone): < 0.5 %ID/g
- tissue uptake at 1 h ([3]; brain, Tissue uptake: Brain): < 0.5 %ID/g
- tissue uptake at 24 h ([3]; brain, Tissue uptake: Brain): < 0.5 %ID/g
- tissue uptake at 1 h ([3]; heart, Tissue uptake: Heart): < 0.5 %ID/g
- tissue uptake at 24 h ([3]; heart, Tissue uptake: Heart): < 0.5 %ID/g
- tissue uptake at 1 h [3, 5]: 0.6 ± 0.24 %ID/g
- tissue uptake at 24 h [3, 5]: < 0.5 %ID/g
- tissue uptake at 1 h [3, 6]: 11 ± 1 %ID/g
- tissue uptake at 24 h [3, 6]: 4.8 ± 0.5 %ID/g
- tissue uptake at 24 h ([3]; liver, Tissue uptake: Liver): < 0.5 %ID/g
- tissue uptake at 24 h ([3]; lung, Tissue uptake: Lung): < 0.5 %ID/g
- tissue uptake at 1 h ([3]; muscle, Tissue uptake: Muscle): < 0.5 %ID/g
- tissue uptake at 24 h ([3]; muscle, Tissue uptake: Muscle): < 0.5 %ID/g
- tissue uptake at 1 h [3, 7]: 1.1 ± 0.1 %ID/g
- tissue uptake at 24 h [3, 7]: 0.51 ± 0.17 %ID/g
- tissue uptake at 1 h [3, 8]: < 0.5 %ID/g
- tissue uptake at 24 h [3, 8]: < 0.5 %ID/g
- tissue uptake at 1 h ([3]; spleen, Tissue uptake: Spleen): < 0.5 %ID/g
- tissue uptake at 24 h ([3]; spleen, Tissue uptake: Spleen): < 0.5 %ID/g
- tissue uptake at 1 h ([3]; stomach, Tissue uptake: Stomach): 1.3 ± 0.2 %ID/g

Compound: O=C([O-])CN(CCN(CC(=O)[O-])CC(=O)[O-])CCN(CC(=O)[O-])CC(=O)[O-].[Lu+3] [[^175Lu]Lu-DTPA]
- Tissue uptake: Blood [1]: <0.5 % ID/g
- Tissue uptake: Bone [1]: <0.5 % ID/g
- Tissue uptake: Brain [1]: <0.5 % ID/g
- Tissue uptake: Heart [1]: <0.5 % ID/g
- Tissue uptake: Intestines [1]: <0.5 % ID/g
- Tissue uptake: Kidneys [1]: 2.3 ± 1.0 % ID/g
- Tissue uptake: Liver [1]: <0.5 % ID/g
- Tissue uptake: Lung [1]: <0.5 % ID/g
- Tissue uptake: Muscle [1]: <0.5 % ID/g
- Tissue uptake: Pancreas [1]: <0.5 % ID/g
- Tissue uptake: Salivary glands [1]: <0.5 % ID/g
- Tissue uptake: Spleen [1]: <0.5 % ID/g
- Tissue uptake: Stomach [1]: <0.5 % ID/g
- Lanthanide detected in cell samples (background levels) [2]: < 20 ppt
